According to patent publication US20240199616A1, “BICYCLIC COMPOUNDS AS ALLOSTERIC SHP2 INHIBITORS” (Revolution Medicines, Inc., priority 2017, published 2024):
pIC50: −log10 of the molar value.

Biological target: SHP2 (Homo sapiens (Human), UniProt Q06124)
Assay: SHP2 allosteric inhibition assay (DiFMUP prompt fluorescence)
Assay type: biochemical
Conditions: 0.2 nM SHP2 incubated with 0.5 μM Activating Peptide 1 or 2, 30-60 min at 25° C., surrogate substrate DiFMUP, kinetic read
Text: Without wishing to be bound by theory, SHP is allosterically activated through binding of bis-tyrosyl-phosphorylated peptides to its Src Homology 2 (SH2) domains. The latter activation step leads to the release of the auto-inhibitory interface of SHP2, which in turn renders the SHP2 protein tyrosine phosphatase (PTP) active and available for substrate recognition and reaction catalysis. The catalytic activity of SHP2 was monitored using the surrogate substrate DiFMUP in a prompt fluorescence assay format.
The phosphatase reactions were performed at room temperature in 96-well black polystyrene plate, flat bottom, non-binding surface (Corning, Cat #3650) using a final reaction volume of 100 μL and the following assay buffer conditions: 50 mM HEPES, pH 7.2, 100 mM NaCl, 0.5 mM EDTA, 0.05% P-20, 1 mM DTT.
The inhibition of SHP2 by compounds of the disclosure (concentrations varying from 0.00005-10 μM) was monitored using an assay in which 0.2 nM of SHP2 was incubated with 0.5 μM of Activating Peptide 1 (sequence: H2N-LN(pY)IDLDLV(dPEG8)LST(pY)ASINFQK-amide) or Activating Peptide 2 (sequence: H2N-LN(pY)AQLWHA(dPEG8)LTI(pY)ATIRRF-amide). […]

SHP2, sequence (Q06124 whole entry): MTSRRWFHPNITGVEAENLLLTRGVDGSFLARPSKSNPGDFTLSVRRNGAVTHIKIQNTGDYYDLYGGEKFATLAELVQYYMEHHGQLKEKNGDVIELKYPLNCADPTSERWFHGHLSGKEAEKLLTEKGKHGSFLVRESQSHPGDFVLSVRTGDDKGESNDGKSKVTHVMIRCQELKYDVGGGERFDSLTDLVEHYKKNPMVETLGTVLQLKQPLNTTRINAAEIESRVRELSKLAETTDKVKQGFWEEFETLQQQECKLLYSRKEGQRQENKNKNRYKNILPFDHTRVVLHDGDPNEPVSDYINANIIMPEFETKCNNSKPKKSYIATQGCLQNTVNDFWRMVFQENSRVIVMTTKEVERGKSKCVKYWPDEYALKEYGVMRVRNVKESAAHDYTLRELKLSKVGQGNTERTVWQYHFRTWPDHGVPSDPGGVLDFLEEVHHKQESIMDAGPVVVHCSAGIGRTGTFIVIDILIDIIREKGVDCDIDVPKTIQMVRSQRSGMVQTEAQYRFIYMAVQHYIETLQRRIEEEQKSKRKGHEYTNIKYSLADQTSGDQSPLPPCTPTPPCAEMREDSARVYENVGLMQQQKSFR

Structure (SMILES): Cc1nc(N2CCC3(CCC[C@H]3N)CC2)c2cncn2c1-c1cccc(Cl)c1Cl [Compound 3, (1R)-8-[5-(2,3-dichlorophenyl)-6-methylimidazo[1,5-a]pyrazin-8-yl]-8-azaspiro[4.5]decan-1-amine]
- pIC50: 7.47
